For data set [1] the following is noted: clinical trials and case reports; Wolf et al., 2013; cited from earlier work.
Another data set has as its system human intact FGF23. In words: Intact FGF23 (iFGF23) over time, two-site ELISA, trials IDA-04/IDA-05. It counts as in vivo. Conditions: single dose 1000 mg at baseline. As for the experimental part: The trial was a randomized, open-label, comparative trial. Subjects with Iron Deficiency Anaemia (IDA) were randomized 1:1 to one treatment course of one of the following treatments: • Group A: iron isomaltoside 1000 (Monofer®, Pharmacosmos, Holbok, Denmark, termed iron isomaltoside in the following), 1000 mg at baseline • Group B: ferric carboxymaltose (Ferinject®/Injectafer®, Vifor Inc, Switzerland), 750 mg at baseline and day 7, cumulative dose: 1500 mg
The secondary safety endpoints were the following: • Incidence of s-phosphate below 1.0 mg/dL at any time from baseline to day 35 • Time with hypophosphatemia (i.e. time with s-phosphate <2.0 mg/dL) from baseline to day 35 • Proportion of subjects with hypophosphatemia at day 35 • Absolute [Δ] and relative [%] changes in s-phosphate from baseline to 1, 7, 8, 14, 21, and 35 • Fractional phosphate urinary excretion at 1, 7, 8, 14, 21, and 35 • Change in iFGF23, cFGF23, vitamin D (25, 1,25, 24,25), PTH, and ionized calcium from baseline to 1, 7, 8, 14, 21, and 35 • Type and incidence of AEs • Serious or severe hypersensitivity reaction starting on or after the first dose of randomized treatment (i.e. treatment emergent). The hypersensitivity terms were defined as standardised Medical Dictionary for Regulatory Activities query (SMQ) terms. […]
The following safety laboratory assessments were analysed: • S-phosphate: inorganic phosphorous forms an ammonium phosphomolybdate complex having the formula (NH4)3[PO4](MoO3)12 with ammonium molybdate in the presence of sulfuric acid. The complex was determined photometrically in the ultraviolet region (340 nm) of the spectrum using the Roche Modular and Cobas Analyzer. • iFGF23 and cFGF23: the human intact FGF23 was measured by the 2nd generation Elisa kit manufactured by Immonotropics, Inc, San Clemente, CA. […] The human C-terminal FGF23 was measured by the Elisa kit manufactured by Immonotropics, Inc, San Clemente, CA. […] After evaporation under nitrogen, the residue was reconstituted and analyzed using Liquid Chromatography (LC) with Tandem Mass Spectrometric detection (MS/MS). […] A direct relationship exists between the amount of PTH present in the patient sample and the amount of relative light units (RLUs) detected by the system. • Ionized calcium: Measured by the IL GEM Premier 3500 PAK cartridge. […]
In general terms: ELISA stands for enzyme-linked immunosorbent assay.

As for saccharated iron oxide, the “risk for iFGF23-mediated reduction of serum phosphate levels and development of hypophosphatemia” value in data set [1] is “highest risk”.
As for iron isomaltoside 1000 [IIM], the “change of the iFGF23 level” value in the data set with human intact FGF23 is “essentially no change”.
In the case of iron polymaltose, the “risk for iFGF23-mediated reduction of serum phosphate levels and development of hypophosphatemia” value in data set [1] was “highest risk”.

These data come from patent publication US20260091015A1, “TREATING IRON DEFICIENCY WITH FERRIC CARBOXYMALTOSE” (PHARMACOSMOS HOLDING A/S, priority 2018, published 2026).
